{"source": "patent US12122821B2", "about": "“Regulation of glucose metabolism using anti-CGRP antibodies” (H. LUNDBECK A/S, priority 2013, dated 2024)", "key": {"HFD rats": {"system": "HFD rats", "experiment": "2-step hyperinsulinemic-euglycemic clamp in HFD rats (Example 2)", "assay_type": "in vivo, rat", "settings": "metformin 200 mg/kg/day, vs HFD vehicle", "protocol": "Six-week HFD fed rats were treated for 2 weeks with Ab14, and a 2-step hyperinsulinemic euglycemic clamp was performed to assess insulin sensitivity. A physiological dose of insulin was used during the first step and a pharmacological dose of insulin was used during the second step to assess the effects of […] insulin sensitivity, respectively, under these two conditions.\nBody weight and food consumption were measured 3 times per week until 10 days of treatment. HOMA-IR was measured on day 10 and 15. A 2-step clamp (5 mU/kg/min and then 15 mU/kg/min insulin) was performed on day 15 or 16. Glucose Turnover (GTO) was assessed using ^3H-glucose tracer infusion during the clamp procedure.\nOn day 15 or 16, the 2-step hyperinsulinemic-euglycemic clamp was performed using ^3H-glucose as a tracer (except in the normal chow group), and 5 mU/kg/min insulin infusion from 02:00 pm (T0) to 04:00 pm (T+2 h), followed by 15 mU/kg/min insulin infusion from 04:00 pm to 05:30 pm (t+3.5 h). A glucose solution was infused in parallel and the infusion rate was adjusted to reach the steady state (100±10 mg/dL). Blood glucose was measured from the tip of the tail using glucometers every 10 minutes. Blood was collected (10 μL) regularly from the tip of the tail during the steady states of each step.\nThe following parameters were assessed: Glucose infusion rate (in all groups); Whole body glucose utilization rate (except in the normal chow group); Hepatic glucose production rate (except in the normal chow group); Whole body glycogen and glycolytic rates (except in the normal chow group)."}, "Normal rats [1]": {"system": "Normal rats", "experiment": "Blood glucose, plasma insulin and HOMA-IR before clamp in normal rats (Example 1)", "assay_type": "in vivo, rat", "settings": "vs vehicle", "protocol": "The antibody used in this example consisted of the light and heavy polypeptide chains of SEQ ID NOs 132 and 134.\nBlood glucose (BG) was measured between 07:30 and 08:00 (just before the light off) am from the tip of the tail with glucometer and a blood collection (on EDTA) was performed just after to measure plasma insulin. The table below describes the conditions:\nPlasma samples were kept at −80° C. until insulin measurement (using ELISA method).\nVehicle and Ab14 were administered by i.v. route 48 h before the T0 of clamp procedure (at 02:00 pm two days before the clamp).\nThe rats were fasted 6 hours before the start of the clamp (at ˜8 h, just after the blood collection)."}, "Normal rats [2]": {"system": "Normal rats", "experiment": "Hyperinsulinemic-euglycemic clamp, whole body glucose fluxes in normal rats (Example 1)", "assay_type": "in vivo, rat", "settings": "vs vehicle", "protocol": "To assess the effect on whole body insulin sensitivity, a clamp procedure was performed using 0.3 U/kg/h insulin and ^3H-glucose. Rats were fasted for 6 hours before 180 minutes of perfusion. Steady state was reached after 140 minutes of infusion and the means of glucose infusion rate (GIR), whole body glucose turn over (GTO), hepatic glucose production (HGP), glycolysis, and glycogen synthesis were calculated from 140 min. to 180 min. A bolus of 14-C-2-deoxyglucose was administered 1 hour before the end of the clamp to measure tissue specific glucose utilization.\nThe hyperinsulinemic-euglycemic clamp was performed using ^3H-glucose as a tracer and 0.3 U/kg/h insulin infusion from 02:00 pm (T0) to 05:00 pm (T+3 h). A glucose solution was infused in parallel and the infusion rate was adjusted to reach the steady state (˜100+/−10 mg/dL). Blood glucose was measured from the tip of the tail using glucometers every 10 minutes. Blood was collected (10 μL) from the tip of the tail during the last hour (steady state) and the following parameters were assessed: Glucose infusion rate; Whole body glucose utilization rate; Hepatic glucose production rate; Whole body glycogen and glycolytic rates.\nWhole body Glucose fluxes."}, "[3]": {"system": "Zucker diabetic fatty (ZDF) rat", "settings": "ZDF rats", "protocol": "Each pancreas was divided into 2 parts (longitudinal cut). One piece was fixed in 10% formalin solution for histopathological processing. The other piece of pancreas was flash frozen and kept at −80° C. for determination of insulin and proinsulin levels.\nEach pancreas sample was fixed in 4% formalin during 24-48 hours maximum; the volume of formalin was 5-10 times higher than the sample volume to assure appropriate fixation. After 48 h, the samples were placed in 70% ethanol."}, "[4]": {"settings": "clamp 0.3 U/kg/h insulin, 140-180 min, Ab14 100 mg/kg i.v., metformin 500 mg/kg p.o."}, "[5]": {"settings": "Ab14 60 mg/kg/wk., Met. 200 mg/kg/day"}}, "note": "“Also recorded” adds a separate entry of the source."}
{"smiles": "CN(C)C(=N)N=C(N)N", "note": "[metformin, reference compound]", "values": [{"measurement": "GIR (plateau) during the first clamp step", "setting": "HFD rats; 5 mU/kg/min insulin, Ab14 treated groups (10, 30, 100 mg/kg)", "result": "increasing effect upon GIR that was comparatively less in magnitude; also recorded: no effect"}, {"measurement": "increase of mean GIR, first step", "setting": "HFD rats; 5 mU/kg/min insulin, ns", "result": 11, "unit": "%"}, {"measurement": "HGP, second step", "setting": "HFD rats; 15 mU/kg/min insulin", "result": "completely inhibited"}, {"measurement": "increase of mean GIR, second step", "setting": "HFD rats; 15 mU/kg/min insulin", "result": 27, "unit": "%"}, {"measurement": "blood glucose in fed conditions", "setting": "Normal rats [1]; fed, 42 h after Ab14 100 mg/kg i.v., 18 h after metformin 500 mg/kg p.o.", "result": "did not affect; also recorded: not affected"}, {"measurement": "decrease of plasma insulin level in fed condition", "setting": "Normal rats [1]; fed, 42 h after Ab14 100 mg/kg i.v., 18 h after metformin 500 mg/kg p.o., not significant", "result": 18, "unit": "%"}, {"measurement": "decrease of blood glucose in 6 hours fasting condition, just before clamp", "setting": "Normal rats [1]; metformin 500 mg/kg p.o.", "result": 17, "unit": "%"}, {"measurement": "GIR evolution during clamp", "setting": "Normal rats [2]; Ab14 100 mg/kg i.v., metformin 500 mg/kg p.o.", "result": "significantly increased"}, {"measurement": "increase of glucose infusion rate (GIR)", "setting": "Normal rats [2]; clamp 0.3 U/kg/h insulin, 140-180 min, Ab14 100 mg/kg i.v. 48 h before, metformin 500 mg/kg p.o. 24 h and 4 h before", "result": 27, "unit": "%"}, {"measurement": "increase of glycolysis rate", "setting": "Normal rats [2]; [4]", "result": 43, "unit": "%"}, {"measurement": "increase of whole body glucose turn over (GTO)", "setting": "Normal rats [2]; [4]", "result": 30, "unit": "%"}, {"measurement": "vacuolization and islet fibrosis severity", "setting": "[3]; AB14 60 mg/kg, metformin, or combined, vs vehicle ZDF", "result": "trend towards a decrease"}, {"measurement": "Arteries, medial/intimal hypertrophy, severity 0, incidence", "setting": "[3]; [5]", "result": 9}, {"measurement": "Arteries, medial/intimal hypertrophy, severity 1, incidence", "setting": "[3]; [5]", "result": 1}, {"measurement": "Brown pigment-laden, severity 1, incidence", "setting": "[3]; [5]", "result": 7}, {"measurement": "Brown pigment-laden, severity 2, incidence", "setting": "[3]; [5]", "result": 3}, {"measurement": "Eosinophilic granulocyte infiltration, severity 0, incidence", "setting": "[3]; [5]", "result": 10}, {"measurement": "Exocrine cell vacuolation, severity 0, incidence", "setting": "[3]; [5]", "result": 10}, {"measurement": "Fat tissue: Fat tissue necrosis, group mean score", "setting": "[3]; [5]", "result": 0}, {"measurement": "Interstitial fibroplasia/fibrosis, severity 0, incidence", "setting": "[3]; [5]", "result": 9}, {"measurement": "Interstitial fibroplasia/fibrosis, severity 1, incidence", "setting": "[3]; [5]", "result": 1}, {"measurement": "Interstitial hemorrhage, severity 0, incidence", "setting": "[3]; [5]", "result": 4}, {"measurement": "Interstitial hemorrhage, severity 1, incidence", "setting": "[3]; [5]", "result": 6}, {"measurement": "Islet Cell Vacuolation, severity 0, incidence", "setting": "[3]; [5]", "result": 1}, {"measurement": "Islet Cell Vacuolation, severity 1, incidence", "setting": "[3]; [5]", "result": 4}, {"measurement": "Islet Cell Vacuolation, severity 2, incidence", "setting": "[3]; [5]", "result": 5}, {"measurement": "Islet Fibrosis, severity 1, incidence", "setting": "[3]; [5]", "result": 3}, {"measurement": "Islet Fibrosis, severity 2, incidence", "setting": "[3]; [5]", "result": 7}, {"measurement": "Islet cell anisocytosis/anisokaryosis, severity 0, incidence", "setting": "[3]; [5]", "result": 2}, {"measurement": "Islet cell anisocytosis/anisokaryosis, severity 1, incidence", "setting": "[3]; [5]", "result": 8}, {"measurement": "Islet cell mitosis, severity 0, incidence", "setting": "[3]; [5]", "result": 5}, {"measurement": "Islet cell mitosis, severity 1, incidence", "setting": "[3]; [5]", "result": 5}, {"measurement": "Islet cell single cell necrosis, severity 0, incidence", "setting": "[3]; [5]", "result": 7}, {"measurement": "Islet cell single cell necrosis, severity 1, incidence", "setting": "[3]; [5]", "result": 3}, {"measurement": "Islet granulocytic infiltration, severity 0, incidence", "setting": "[3]; [5]", "result": 6}, {"measurement": "Islet granulocytic infiltration, severity 1, incidence", "setting": "[3]; [5]", "result": 4}, {"measurement": "Islet hemorrhage, severity 0, incidence", "setting": "[3]; [5]", "result": 8}, {"measurement": "Islet hemorrhage, severity 1, incidence", "setting": "[3]; [5]", "result": 2}, {"measurement": "Large/Giant Islets, severity 0, incidence", "setting": "[3]; [5]", "result": 1}, {"measurement": "Large/Giant Islets, severity 1, incidence", "setting": "[3]; [5]", "result": 1}, {"measurement": "Large/Giant Islets, severity 2, incidence", "setting": "[3]; [5]", "result": 3}, {"measurement": "Large/Giant Islets, severity 3, incidence", "setting": "[3]; [5]", "result": 5}, {"measurement": "Lymph node: Brown pigment-laden macrophages, group mean score", "setting": "[3]; [5]", "result": 0}, {"measurement": "Lymph node: Eosinophilic granulocyte infiltration, group mean score", "setting": "[3]; [5]", "result": 0.5}, {"measurement": "Lymph node: Erythrophagocytosis—sinusoidal, group mean score", "setting": "[3]; [5]", "result": 0}, {"measurement": "Lymph node: Pink protein rich sinusoidal lymph, group mean score", "setting": "[3]; [5]", "result": 0}, {"measurement": "Lymph node: Sinusoidal hemorrhage, group mean score", "setting": "[3]; [5]", "result": 0}, {"measurement": "Lymph node: Sinusoidal mast cells, group mean score", "setting": "[3]; [5]", "result": 0}, {"measurement": "Mononuclear cell infiltration, severity 1, incidence", "setting": "[3]; [5]", "result": 10}, {"measurement": "Pancreas: Arteries, medial/intimal hypertrophy, group mean score", "setting": "[3]; [5]", "result": 0}, {"measurement": "Pancreas: Brown pigment-laden macrophages, group mean score", "setting": "[3]; [5]", "result": 1}, {"measurement": "Pancreas: Eosinophilic granulocyte infiltration, group mean score", "setting": "[3]; [5]", "result": 0}, {"measurement": "Pancreas: Exocrine cell vacuolation, group mean score", "setting": "[3]; [5]", "result": 0}, {"measurement": "Pancreas: Interstitial fibroplasia/fibrosis, group mean score", "setting": "[3]; [5]", "result": 0}, {"measurement": "Pancreas: Interstitial hemorrhage, group mean score", "setting": "[3]; [5]", "result": 1}, {"measurement": "Pancreas: Islet cell anisocytosis/anisokaryosis, group mean score", "setting": "[3]; [5]", "result": 1}, {"measurement": "Pancreas: Islet cell mitosis, group mean score", "setting": "[3]; [5]", "result": 0.5}, {"measurement": "Pancreas: Islet cell single cell necrosis, group mean score", "setting": "[3]; [5]", "result": 0}, {"measurement": "Pancreas: Islet cell vacuolation, group mean score", "setting": "[3]; [5]", "result": 1.5}, {"measurement": "Pancreas: Islet fibrosis, group mean score", "setting": "[3]; [5]", "result": 2}, {"measurement": "Pancreas: Islet granulocytic infiltration, group mean score", "setting": "[3]; [5]", "result": 0}, {"measurement": "Pancreas: Islet hemorrhage, group mean score", "setting": "[3]; [5]", "result": 0}, {"measurement": "Pancreas: Large/giant islet(s), group mean score", "setting": "[3]; [5]", "result": 2.5}, {"measurement": "Pancreas: Mononuclear cell infiltration, group mean score", "setting": "[3]; [5]", "result": 1}, {"measurement": "Pancreas: Pancreatic ductule hyperplasia, group mean score", "setting": "[3]; [5]", "result": 0.5}, {"measurement": "Pancreatic ductule hyperplasia, severity 0, incidence", "setting": "[3]; [5]", "result": 5}, {"measurement": "Pancreatic ductule hyperplasia, severity 1, incidence", "setting": "[3]; [5]", "result": 5}]}
